Source: US10688194B2, “Cell penetrating peptides for intracellular delivery of molecules” (AADIGEN, LLC, priority 2012, dated 2020)
pKd: −log10 of the molar value. {Cy5} = cyanine 5 fluorescent label

How the values were obtained:
[1] = test system: Hela, MCF7, HEK-2, HS-68, and U2OS cells; experiment: Cell cycle progression, controls; assay type: cell-based
Cyclin B1 = experiment: VEPEP-3 mediated delivery of antisense PNA, Cyclin B1 protein level; assay type: cell-based; conditions: different cultured cells
From the text: VEPEP-3 peptides have been used for the delivery of nucleic acid analogues (PNA and morpholino) into different cell lines, including primary cell lines and challenging cell lines. […] We have applied VEPEP-3 strategy for the delivery of PNA antisense targeting Cyclin B1 as previously described (Morris et al, 2007).

protein (GFP & Nanobody) = experiment: Fluorescence titration, VEPEP-3/cargo binding: protein; conditions: cargo: protein (GFP & Nanobody)
Description: (§1) Fluorescence experiments were performed on a PTI spectrofluorimeter at 25° C. in a NaCl 154 mM buffer. Intrinsic Trp-fluorescence of VEPEP-3 was excited at 290 nm and emission spectrum was recorded between 310 and 400 nm, with a spectral band-pass of 2 and 8 nm for excitation and emission, respectively. FITC-fluorescence of labelled-peptide was excited at 492 nm and emission recorded between 500 and 580 nm. For VEPEP-3/peptide interaction, 0.5 μM of FITC-labelled peptide was titrated by increasing concentrations of VEPEP-3. All measurements were corrected for the dilution and curve fitting were performed by using Grafit software (Erithacus).
(§2) VEPEP-3 peptide form stable complexes with peptides and proteins. The binding of cargos to VEPEP-3 was monitored by fluorescence spectroscopy using the […] intrinsic Trp groups of VEPEP-3 (3 to 5 Trp-residues) and extrinsic fluorescently labelled cargoes (using Cy3, Cy5 or FITC). Curve fitting reveal that VEPEP-3 strongly binds the different cargoes with dissociation constant in the nanomolar range (examples with VEPEP-3a, VEPEP-3C, and VEPEP-3g and three different cargoes are reported in FIGS. 1A-1C, all the data are reported in Table 1).

Peptide (C4 and C2) = experiment: Fluorescence titration, VEPEP-3/cargo binding: peptide
Description: as §1, §2

PNA (15 mer-PNA) = experiment: Fluorescence titration, VEPEP-3/cargo binding: PNA; conditions: cargo: 15 mer-PNA
Description: as §1
(§3) VEPEP-3 peptides also form stable particles with small aromatic molecules including Daunomycin, Paclitaxel, doxorubicin, porphyrin and charged molecules including nucleotide, nucleoside and peptide-analog of nucleic acids or fluorescent dyes (FIGS. 1A-1C). The dissociation constant for small hydrophobic molecule ranges between 0.05 to 2 μM, depending on the nature of the dyes and of the peptides.

Cyclic peptide (PC4) = experiment: Fluorescence titration, VEPEP-3/cargo binding: cyclic peptide; conditions: cargo: Cyclic peptide (PC4)
Description: as §1, §2

[2] = Fluorescence titration, VEPEP-3/cargo binding: small hydrophobic molecule; conditions: cargo: Doxorubicine
Description: as §1, §3

## VTLMEAKKQVLT (HELM PEPTIDE1{[ac].V.T.L.M.E.A.K.K.Q.V.L.T.[SCCN[*:1]]}$$$$V2.0; SMILES CSCC[C@H](NC(=O)[C@H](CC(C)C)NC(=O)[C@@H](NC(=O)[C@@H](NC(C)=O)C(C)C)[C@@H](C)O)C(=O)N[C@@H](CCC(=O)O)C(=O)N[C@@H](C)C(=O)N[C@@H](CCCCN)C(=O)N[C@@H](CCCCN)C(=O)N[C@@H](CCC(N)=O)C(=O)N[C@H](C(=O)N[C@@H](CC(C)C)C(=O)N[C@H](C(=O)NCCS)[C@@H](C)O)C(C)C) [scrambled C2, reference compound]
[1]; 500 nM, complexed with VEPEP-3a at a 20/1 ratio
  effect on cell cycle progression: no effect

## TGC CAT CGG GCT TGG AGG-CY5 (antisense TGCCATCGGGCTTGGAGG; 3' {Cy5}, sugars by position and backbone not given here; further chemistry not fully specified) [PNA (Cyclin B1)]
Cyclin B1
  downregulation of Cyclin B1 protein level: higher than 70%

## X1KWFERWFREWPRKRR [VEPEP-3a]
Protein (GFP & Nanobody)
  Binding, Protein: Yes
  pKd: 6.00
[1]; carrier alone (200 μM)
  effect on cell cycle progression: no effect
Peptide (C4 and C2)
  Binding, peptide: yes
  pKd: 7.70 to 8.00
PNA (15 mer-PNA)
  Binding, PNA: Yes
  pKd: 7.00
Cyclic peptide (PC4)
  Binding, Cyclic peptide: yes
[2]
  Binding, SHM: Yes
[2]; read-out: Kd, SHM
  pKd: 6.00
